How the values were obtained:
Human MMP-3 = Human MMP-3 (Homo sapiens, UniProt P08254); experiment: MMP enzymatic activity, modified fluorescence assay (DNP-substrate); format: biochemical
Description: (§1) IC50 values are measured by an in vitro assay for MMP enzymatic activity. […] This assay is based on the determination of MMP enzymatic activity on a dinitrophenol substrate and fluorescence measurement of the substrate after cleaving by MMPs.
(§2) Human MMP-1, MMP-2, MMP-3, MMP-9 and MMP-14 are commercially available (e.g. Calbiochem). The pro-enzymes were activated with 1 mM APMA (incubation for 30 min at 37° C.) immediately before testing. Activated enzyme is diluted to 100 ng/ml in incubation buffer (50 mM Tris, 100 mM NaCl, 10 mM CaCl2, pH 7.6). The compounds were dissolved in 100% DMSO.
(§3) The test tube contains 970 μl incubation buffer, 10 μl inhibitor solution and 10 μl enzyme solution. The reaction was started by adding the 10 μl substrate solution.

Human MMP-1 = molecular target: T1, Human MMP-1 (Homo sapiens, UniProt P03956); experiment: as above; format: biochemical
T1 sequence (P03956 100-469): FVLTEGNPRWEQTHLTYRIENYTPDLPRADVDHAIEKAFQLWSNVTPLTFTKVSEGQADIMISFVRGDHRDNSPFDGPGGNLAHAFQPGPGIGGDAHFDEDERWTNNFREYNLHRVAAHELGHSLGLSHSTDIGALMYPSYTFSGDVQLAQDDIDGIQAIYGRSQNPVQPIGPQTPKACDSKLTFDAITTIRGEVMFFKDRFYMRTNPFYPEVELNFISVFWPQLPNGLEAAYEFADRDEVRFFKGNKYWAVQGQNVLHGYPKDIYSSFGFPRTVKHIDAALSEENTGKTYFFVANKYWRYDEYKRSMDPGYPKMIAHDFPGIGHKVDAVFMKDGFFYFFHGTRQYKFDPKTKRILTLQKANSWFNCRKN
Description: as §1, §2, §3

Human MMP-2 = molecular target: T2, Human MMP-2 (Homo sapiens, UniProt P08253); experiment: as above; format: biochemical
T2 sequence (P08253 110-660): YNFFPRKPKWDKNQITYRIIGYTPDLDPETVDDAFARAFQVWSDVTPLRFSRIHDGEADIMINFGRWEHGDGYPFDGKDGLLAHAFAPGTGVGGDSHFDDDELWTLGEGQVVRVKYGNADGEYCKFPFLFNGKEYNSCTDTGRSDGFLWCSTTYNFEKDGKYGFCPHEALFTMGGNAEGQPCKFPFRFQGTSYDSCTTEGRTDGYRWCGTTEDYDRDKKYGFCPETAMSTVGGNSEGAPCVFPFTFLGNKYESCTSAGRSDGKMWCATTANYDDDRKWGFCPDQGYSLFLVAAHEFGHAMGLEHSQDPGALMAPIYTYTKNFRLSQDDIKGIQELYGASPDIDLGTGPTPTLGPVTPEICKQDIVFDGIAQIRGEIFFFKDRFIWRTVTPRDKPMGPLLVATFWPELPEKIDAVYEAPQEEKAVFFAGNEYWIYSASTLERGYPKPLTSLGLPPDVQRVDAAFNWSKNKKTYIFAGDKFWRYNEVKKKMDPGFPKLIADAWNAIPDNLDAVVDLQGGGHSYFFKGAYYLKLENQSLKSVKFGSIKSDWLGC
Description: as §1, §2, §3

[1] = Pharmacokinetics after intravenous administration to sheep; format: in vivo; details: I.V. solution, 5 mg/kg
Description: The Compound I/HP-β-CD intravenous solution was obtained by dissolving CompoundI (10 mg/ml) in a solution containing HP-β-CD (200 mM), L-lysine (20 mM) and water for injection. The osmolality (about 325 mOsmol/kg) and the pH (about 8.2) values of this solution are compatible with an intravenous injection. The solution was sterilized by passing through a sterile 0.20 μm cellulose acetate filter under aseptic conditions.
Six healthy sheep (2 males and 4 females) ranging from 45 to 82 kg of body weight were used as experimental animals. During the test, the animals were fed and watered ad libitum.
The experimental study, which was realized following the scheme of Table 3, included a randomized two-way cross-over design for oral administration followed by an intravenous administration. A wash-out period of 3 weeks was allowed between each administration.
For the intravenous dosage form, all six sheep received 5 mg of Compound I/kg of body weight. The solution was administered through the left jugular vein and blood samples were taken from the right jugular vein before and 5, 10, 15, 20, 30, 45 min, 1, 1.5, 2, 3, 4, 5, 6, 8, 10, 12, 24, 28, 32, 48, 72, 96, 120, 144, 168 h after starting the intravenous administration.
All blood samples were centrifuged and the serum were stored at −80° C. until assayed.
A fully automated method was developed for the LC determination of this compound in serum. Sample clean-up was performed by on-line coupling of a pre-column packed with restricted access material (RAM), namely LiChrospher RP-8ADS (alkyl diol silica), to the analytical column by means of the column-switching technique. The ADS sorbents belong to the group of internal surface reversed-phase supports and have been applied successfully for the clean-up of biological samples prior to LC analysis (Yu, Z., and Westerlund, D., Chromatographia 44 (1997) 589-594; Hubert, Ph., et al., S. T. P. Pharma Pratiques 9 (1999) 160-180; Souverain, S., et al., Journal of Chromatography B 801 (2004) 141-156). The operating conditions are described in a previous paper (Chiap, P., et al., Journal of Chromatography B 817 (2005), 109-117). The method was fully validated according to a novel approach based on accuracy profiles taking into account the total measurement error (Hubert, P., et al., Analytica Chimica Acta 391 (1999) 135-148; Hubert, Ph., et al., S. T. P. Pharma Pratiques 13 (2003) 27-64; Hubert, Ph., et al., J Pharm Biomed. Anal. 36 (2004) 579-586.
For the bioanalytical study, the dosing range of the method had to be increased until 50 μg/ml due to high concentrations to be determined. A partial revalidation was performed and good results were obtained with respect to response function, trueness, precision, accuracy and linearity.
For the intravenous administration study, the pharmacokinetic parameters were determined for each animal using a linear two-compartment model with first-order distribution and elimination (Boroujerdi, M., Pharmacokinetics, Principles and Applications. McGrow-Hill Companies, USA, 2002). The areas under the curve values (AUCs0-168) were calculated by linear trapezoidal rule during the sampling period. The AUC extrapolated until infinite values (AUCs0-∞), the total body clearance values (Clt), the biologic half-life (T1/2β) and the overall volume of distribution (Vdt) were calculated using conventional equations associated with compartmental analysis (Boroujerdi, M., Pharmacokinetics, Principles and Applications, McGrow-Hill Companies, USA, 2002).

Chain of Human MMP-3 (P08254 100-477): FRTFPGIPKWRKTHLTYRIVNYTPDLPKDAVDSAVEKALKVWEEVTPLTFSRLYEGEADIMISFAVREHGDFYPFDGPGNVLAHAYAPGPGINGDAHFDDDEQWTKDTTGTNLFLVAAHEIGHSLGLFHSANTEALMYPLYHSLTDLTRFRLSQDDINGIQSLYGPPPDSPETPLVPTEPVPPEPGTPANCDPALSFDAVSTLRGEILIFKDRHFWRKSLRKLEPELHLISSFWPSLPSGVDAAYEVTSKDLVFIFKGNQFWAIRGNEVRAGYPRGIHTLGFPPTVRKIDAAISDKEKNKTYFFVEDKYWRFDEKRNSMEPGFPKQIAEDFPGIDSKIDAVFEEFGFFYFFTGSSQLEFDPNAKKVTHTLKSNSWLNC

Compound: O=C1NC(=O)C(c2ccc(-c3ccccc3)cc2)(N2CCN(c3ccc([N+](=O)[O-])cc3)CC2)C(=O)N1 [Compound I, 5-Biphenyl-4-yl-5-[4-(4-nitro-phenyl)-piperazin-1-yl]pyrimidine-2,4,6-trione]
- IC50 (Human MMP-3): 3.5 µM
- IC50 (Human MMP-1): 53 µM
- IC50 (Human MMP-2): 0.065 µM
- distribution phase ([1]; sheep): about 30 minutes
- AUC(0-inf) ([1]; both sexes, serum, iv, sheep n = 6, mean ± S.D.): 859 ± 212 µg·h/mL
- AUC(0-t) ([1]; both sexes, serum, iv, sheep n = 6, mean ± S.D., read-out: AUC0-168 h): 858 ± 212 µg·h/mL
- clearance ([1]; both sexes, sheep, serum, iv, sheep n = 6, mean ± S.D., read-out: Clt (total body clearance) (converted)): ~5.97 mL/min
- half-life ([1]; both sexes, sheep, serum, iv, sheep n = 6, mean ± S.D., read-out: T1/2β (biologic half-life) (converted)): ~15.5 h
- Vd ([1]; both sexes, sheep, serum, iv, sheep n = 6, mean ± S.D., read-out: Vdt (overall volume of distribution)): ~8 L

Source: US20070225253A1, “Use of a trioxopyrimidine for the treatment and prevention of bronchial inflammatory diseases” (priority 2004, published 2007)
